Consider 1 compound from US20250177366A1, “COMPOSITIONS AND METHODS FOR ALLEVIATING PAIN AND REDUCING ADVERSIVENESS OF STIMULI” (UNIVERSITY OF WASHINGTON, priority 2021, published 2025).

Test [1] deals with larval zebrafish. The experiment in a line: Light/dark preference (phototaxis) assay. The class given is in vivo, Zebrafish (Danio rerio). To be noted: for light/dark preference: last two minutes of each trial, last four trials. On the procedure: Following this, whether the effects of AS1 were restricted to somatosensation or were generalizable to other aversive stimuli were tested. Thus, the effects of AS1 on light/dark preference were tested. Zebrafish larvae prefer white light environments to dark environments and this preference is inhibited by anxiolytics, analagous to studies in rodents (Lau et al., Proc. Natl. Acad. Sci. U.S.A 2011; 108:2581-2586; Burgess et al., Curr. Biol. 2010; 20:381-386). To measure light/dark preference, larval zebrafish were placed in a square arena and given the choice between a bright white light and total darkness, and the number of larvae on each side was quantified at 30 second intervals. Five 4-minute trials were performed, where the light and dark sides of the arena were reversed between trials. […] Given the precise control over stimulus luminosity in this assay, the effects of altering the intensity of the dark stimulus were explored next. In this gradient version of the phototaxis assay, larval zebrafish were given the choice between a bright white environment and one of six potential shades of darkness, ranging from light gray to solid black. […] This implies that the valence of non-painful noxious stimuli is precisely encoded in an intensity-dependent manner, and that AS1 exerts its effects in proportion to the intensity of the stimulus.
Light/dark preference (phototaxis) assay. In the light/dark preference assay, randomly-selected 6 dpf larval zebrafish (N of 30 to 40) were carefully pipetted onto a 10 cm square petri dish using a 10 mL pipette pump equipped with a glass wide-bored Pasteur pipet. As much E2 media as possible was carefully removed using the same pipet. For single incubation experiments, 30 mL of 1× solutions of the control or test chemical was added to each petri dish, and fish were incubated for 10 minutes at 28.5° C. For double incubation experiments, 15 mL of 1× solutions containing control (DMSO) or test chemicals was added to the larvae-containing petri dish. Following a ten-minute incubation period, 15 mL of the second incubation solution (1× control or test chemical +/−2× AS1) was added to the petri dish, and the fish were incubated for a second ten minute block. The final concentration of DMSO in all solutions was 1%. In all double-incubation experiments, the final concentration of AS1 was 2.5 μM. These petri dishes were then positioned over a horizontally-oriented computer monitor displaying a PowerPoint presentation. For standard light/dark preference assays, a blank white slide was initially presented for one minute, after which the presentation would automatically advance to a slide in which half of the display was black. The petri dish with larvae was positioned such that exactly half was directly over the dark side, and the other half was directly over the light side. After four minutes, the presentation automatically advanced to a slide in which the black and white halves switched places. A total of five four-minute trials, with the dark/light halves automatically switching position between trials, were recorded. For the gradient phototaxis assay, experiments were performed identically, except that the “dark” half of the powerpoint presentation was one of six shades of gray.
In all experiments, an initial still frame of video was taken during the minute where the blank slide was presented in order to quantify the total number of fish in the experiment. Following this, still frames were taken at 30 second intervals for each trial ([…]), and the number of fish present in the light half of the arena were counted. To generate the graphs that looked at swimming patterns over time in a trial (e.g., FIG. 3D), the average percentage of fish in the light at each time point (T=0, T=30, etc.) was calculated across all five trials. […]

Test [2] relates to larval zebrafish. The experiment in a line: Sensitized thermal aversion assay (28.5° vs 31.5° C. after AITC), small molecule screen. To be noted: 10 min incubation then AITC 0.5 μM. It is filed as in vivo, Zebrafish (Danio rerio). From the text:
The Novel Analgesic AS1 reverses the valence of normally aversive stimuli. In a previously published study, a novel high throughput temperature discrimination assay utilizing larval zebrafish that modeled acute and sensitized temperature aversion were developed (FIG. 1A) (Curtright et al., PLoS One. 2015; 10:1-18). […] Also shown is that multiple small molecule analgesics could reverse acute and/or sensitized thermal aversion while non-analgesics could not.
Using the sensitized thermal aversion assay, a small molecule library was screened in order to identify targets in pain transduction pathways and potential entry points for therapeutic intervention. The compounds were selected from Chembridge's CNS-Set (https://www.chembridge.com), which consists of small molecules selected for blood brain barrier penetration and oral bioavailability. Compounds were selected from across the library to maximize the diversity of molecules screened. Small molecules were initially pooled (8 per pool) to maximize screening efficiency. […]
Thermal preference assay. […] Locomotor behavior was recorded using a Canon high-definition video camcorder suspended at a fixed position above the choice testing plate. […]

Regarding `CC(C)c1ccc(C(=O)Nc2ccncc2)cc1` [AS1, 4-propan-2-yl-N-pyridin-4-ylbenzamide], in the test with larval zebrafish [1] (1 μM AS1), the light/dark preference result was “significantly prefer the light side of the arena”. Moreover, in the test with larval zebrafish [1] (2.5 μM AS1), the “gradient phototaxis: choice between bright white (shade 1) and darker shades 2-7” value was “increasingly prefer the contrasting dark shade”; the light/dark preference entry is recorded as “significantly prefer the dark”. Further, in the test on larval zebrafish [1] (AS1-treated vs vehicle-treated larvae), the “light/dark preference, dose dependence” value is given as “reversed light/dark preference in a dose-dependent manner”. In the test with larval zebrafish [2], the “sensitized thermal aversion / place preference” value was “induced place preference for the noxious zone”.
